From patent US20250186405A1, “Compound For Use In Treating Narcolepsy” (Alkermes, Inc., priority 2023, published 2025)

Tested on: subjects with idiopathic hypersomnia (IH)
Experiment: Part 6 POC IH: treatment-emergent adverse events, single doses, crossover
[1] = Total (any Compound A dose), N = 8

Method: Part 6 consisted of a 4-way, 4-period crossover study design in approximately 8 subjects (2 subjects per sequence; minimum of 4 subjects with 1 subject per sequence). […] Treatments were administered under fasted state.
Subjects were randomized to 1 of 4 sequences. […] No food was given for at least 3 hours after dose administration (i.e., fast can be broken after the 3-hour PK time point is collected). Water was allowed ad libitum except for 1 hour before and 1 hour after study drug administration. Safety assessments including AEs, safety ECGs, vital signs, and clinical laboratory tests were conducted, and plasma PK samples were collected.
Adverse events (AEs) and serious adverse events (SAEs) were monitored continuously until the completion of the study.
Eight subjects with IH were dosed in Part 6 (POC in IH) in a randomized 4-sequence 4-period cross-over design.

SMILES: CS(=O)(=O)N[C@H]1CCCN2C(=O)COc3ccccc3C3CCC(CC3)OCC12 (stereo partly drawn) [Compound A, N-[(4S,4aR,7α,10α)-1,2,3,4,4a,5,7,8,9,10,16,17-dodecahydro-17-oxo-7,10-ethanopyrido[1,2-d][1,7,4]benzodioxaazacyclotridecin-4-yl]methanesulfonamide]
- Any SAEs (25 mg single dose, N = 8): 0 n (%)
- Any TEAE (25 mg single dose, N = 8): 7 (87.5) n (%)
- Death (25 mg single dose, N = 8): 0 n (%)
- Drug Related TEAE by Preferred Term: Cold sweat (25 mg single dose, N = 8): 1 (12.5) n (%)
- Drug Related TEAE by Preferred Term: Dizziness (25 mg single dose, N = 8): 2 (25.0) n (%)
- Drug Related TEAE by Preferred Term: Dysuria (25 mg single dose, N = 8): 1 (12.5) n (%)
- Drug Related TEAE by Preferred Term: Feeling jittery (25 mg single dose, N = 8): 1 (12.5) n (%)
- Drug Related TEAE by Preferred Term: Insomnia (25 mg single dose, N = 8): 2 (25.0) n (%)
- Drug Related TEAE by Preferred Term: Micturition urgency (25 mg single dose, N = 8): 1 (12.5) n (%)
- Drug Related TEAE by Preferred Term: Middle insomnia (25 mg single dose, N = 8): 1 (12.5) n (%)
- Drug Related TEAE by Preferred Term: Palpitations (25 mg single dose, N = 8): 1 (12.5) n (%)
- Drug Related TEAE by Preferred Term: Pollakiuria (25 mg single dose, N = 8): 4 (50.0) n (%)
- Drug Related TEAE by Preferred Term: Supraventricular extrasystoles (25 mg single dose, N = 8): 1 (12.5) n (%)
- Drug Related TEAE by Preferred Term: Tachycardia (25 mg single dose, N = 8): 1 (12.5) n (%)
- Drug Related TEAE by Preferred Term: Visual impairment (25 mg single dose, N = 8): 1 (12.5) n (%)
- Subjects with at least one TEAE (25 mg single dose, N = 8): 7 (87.5) n (%)
- Subjects with at least one treatment-related TEAE (25 mg single dose, N = 8): 7 (87.5) n (%)
- TEAE by Highest Relationship: Not Related (25 mg single dose, N = 8): 0 n (%)
- TEAE by Highest Relationship: Related (25 mg single dose, N = 8): 7 (87.5) n (%)
- TEAE by Highest Severity: Mild (25 mg single dose, N = 8): 6 (75.0) n (%)
- TEAE by Highest Severity: Moderate (25 mg single dose, N = 8): 1 (12.5) n (%)
- TEAE by Highest Severity: Severe (25 mg single dose, N = 8): 0 n (%)
- TEAE by Preferred Term: Blood creatine phosphokinase increased (25 mg single dose, N = 8): 0 n (%)
- TEAE by Preferred Term: Blood creatinine increased (25 mg single dose, N = 8): 0 n (%)
- TEAE by Preferred Term: Cold sweat (25 mg single dose, N = 8): 1 (12.5) n (%)
- TEAE by Preferred Term: Dermatitis contact (25 mg single dose, N = 8): 0 n (%)
- TEAE by Preferred Term: Dizziness (25 mg single dose, N = 8): 2 (25.0) n (%)
- TEAE by Preferred Term: Dysuria (25 mg single dose, N = 8): 1 (12.5) n (%)
- TEAE by Preferred Term: Epistaxis (25 mg single dose, N = 8): 1 (12.5) n (%)
- TEAE by Preferred Term: Feeling jittery (25 mg single dose, N = 8): 1 (12.5) n (%)
- TEAE by Preferred Term: Headache (25 mg single dose, N = 8): 1 (12.5) n (%)
- TEAE by Preferred Term: Insomnia (25 mg single dose, N = 8): 2 (25.0) n (%)
- TEAE by Preferred Term: Micturition urgency (25 mg single dose, N = 8): 1 (12.5) n (%)
- TEAE by Preferred Term: Middle insomnia (25 mg single dose, N = 8): 1 (12.5) n (%)
- TEAE by Preferred Term: Nausea (25 mg single dose, N = 8): 0 n (%)
- TEAE by Preferred Term: Neck pain (25 mg single dose, N = 8): 0 n (%)
- TEAE by Preferred Term: Palpitations (25 mg single dose, N = 8): 1 (12.5) n (%)
- TEAE by Preferred Term: Phlebitis (25 mg single dose, N = 8): 0 n (%)
- TEAE by Preferred Term: Pollakiuria (25 mg single dose, N = 8): 4 (50.0) n (%)
- TEAE by Preferred Term: Presyncope (25 mg single dose, N = 8): 0 n (%)
- TEAE by Preferred Term: Skin irritation (25 mg single dose, N = 8): 0 n (%)
- TEAE by Preferred Term: Steatorrhoea (25 mg single dose, N = 8): 0 n (%)
- TEAE by Preferred Term: Supraventricular extrasystoles (25 mg single dose, N = 8): 1 (12.5) n (%)
- TEAE by Preferred Term: Tachycardia (25 mg single dose, N = 8): 1 (12.5) n (%)
- TEAE by Preferred Term: Urinary tract infection (25 mg single dose, N = 8): 0 n (%)
- TEAE by Preferred Term: Vessel puncture site bruise (25 mg single dose, N = 8): 0 n (%)
- TEAE by Preferred Term: Vessel puncture site pain (25 mg single dose, N = 8): 1 (12.5) n (%)
- TEAE by Preferred Term: Visual impairment (25 mg single dose, N = 8): 1 (12.5) n (%)
- TEAE by Preferred Term: Vomiting (25 mg single dose, N = 8): 0 n (%)
- Tolerability (IH, 5, 12 and 25 mg): well tolerated
- Subjects with at least one TEAE (IH, N = 8, all periods): 100%
- AE Leading to Study Drug Discontinuation [1]: 0 n (%)
- Any SAEs [1]: 0 n (%)
- Any TEAE [1]: 8 n (%)
- Death [1]: 0 n (%)
- Drug Related TEAE by Preferred Term: Cold sweat [1]: 1 (12.5) n (%)
- Drug Related TEAE by Preferred Term: Dizziness [1]: 2 (25.0) n (%)
- Drug Related TEAE by Preferred Term: Dysuria [1]: 1 (12.5) n (%)
- Drug Related TEAE by Preferred Term: Feeling jittery [1]: 1 (12.5) n (%)
- Drug Related TEAE by Preferred Term: Insomnia [1]: 2 (25.0) n (%)
- Drug Related TEAE by Preferred Term: Micturition urgency [1]: 1 (12.5) n (%)
- Drug Related TEAE by Preferred Term: Middle insomnia [1]: 2 (25.0) n (%)
- Drug Related TEAE by Preferred Term: Palpitations [1]: 1 (12.5) n (%)
- Drug Related TEAE by Preferred Term: Pollakiuria [1]: 5 (62.5) n (%)
- Drug Related TEAE by Preferred Term: Supraventricular extrasystoles [1]: 1 (12.5) n (%)
- Drug Related TEAE by Preferred Term: Tachycardia [1]: 1 (12.5) n (%)
- Drug Related TEAE by Preferred Term: Visual impairment [1]: 1 (12.5) n (%)
- Subjects with at least one TEAE [1]: 8 n (%)
- Subjects with at least one treatment-related TEAE [1]: 8 (100) n (%)
- TEAE by Highest Relationship: Not Related [1]: 0 n (%)
- TEAE by Highest Relationship: Related [1]: 8 n (%)
- TEAE by Highest Severity: Mild [1]: 7 n (%)
- TEAE by Highest Severity: Moderate [1]: 1 n (%)
- TEAE by Highest Severity: Severe [1]: 0 n (%)
- TEAE by Preferred Term: Blood creatine phosphokinase increased [1]: 1 n (%)
- TEAE by Preferred Term: Blood creatinine increased [1]: 1 n (%)
- TEAE by Preferred Term: Cold sweat [1]: 1 n (%)
- TEAE by Preferred Term: Dermatitis contact [1]: 0 n (%)
- TEAE by Preferred Term: Dizziness [1]: 4 n (%)
- TEAE by Preferred Term: Dysuria [1]: 1 n (%)
- TEAE by Preferred Term: Epistaxis [1]: 1 n (%)
- TEAE by Preferred Term: Feeling jittery [1]: 1 n (%)
- TEAE by Preferred Term: Headache [1]: 3 n (%)
- TEAE by Preferred Term: Insomnia [1]: 2 n (%)
- TEAE by Preferred Term: Micturition urgency [1]: 1 n (%)
- TEAE by Preferred Term: Middle insomnia [1]: 2 n (%)
- TEAE by Preferred Term: Nausea [1]: 1 n (%)
- TEAE by Preferred Term: Neck pain [1]: 1 n (%)
- TEAE by Preferred Term: Palpitations [1]: 1 n (%)
- TEAE by Preferred Term: Phlebitis [1]: 1 n (%)
- TEAE by Preferred Term: Pollakiuria [1]: 5 n (%)
- TEAE by Preferred Term: Presyncope [1]: 1 n (%)
- TEAE by Preferred Term: Skin irritation [1]: 1 n (%)
- TEAE by Preferred Term: Steatorrhoea [1]: 1 n (%)
- TEAE by Preferred Term: Supraventricular extrasystoles [1]: 1 n (%)
- TEAE by Preferred Term: Tachycardia [1]: 1 n (%)
- TEAE by Preferred Term: Urinary tract infection [1]: 1 n (%)
- TEAE by Preferred Term: Vessel puncture site bruise [1]: 2 n (%)
- TEAE by Preferred Term: Vessel puncture site pain [1]: 1 n (%)
- TEAE by Preferred Term: Visual impairment [1]: 1 n (%)
- TEAE by Preferred Term: Vomiting [1]: 0 n (%)
